Measurements taken from US7235548B2, “Compounds and their use as positive AMPA receptor modulators” (NeuroSearch A/S, priority 1998, dated 2007).

System: AMPA receptors
Assay: AMPA evoked single neuron spike activity in rat hippocampus (iontophoretic application of AMPA), in vivo
Settings: for AMPA evoked spike activity: rat hippocampus
Text: Evaluation of the in vivo effects of positive AMPA modulators (PAMs) on the AMPA evoked spike activity in rat hippocampus. Hippocampal single neuron spike activity is strongly influenced by excitatory input, and iontophoretic application of AMPA induces spike activity in vivo in a dose-dependent manner ([…] et al. 1998). […] PAMs potentate AMPA receptor activation in vitro, and if this mechanism also operates in vivo, the i.v. injection of an PAM should enhance AMPA evoked spike activity. Thus, the aim of this study was to test the in vivo effect of a group of in vitro active PAMs. This have been done by studying their ability to enhances AMPA evoked spike activity after i.v. administration. Experiments were performed on male Wistar rats (M & B, Denmark) weighing 280-380 g, housed in two per cage with free access to food and water. […] Additional anaesthetic was given i.v. if the rat responded to a pinch of the back foot. The trachea was cannulated and the rats were placed in a stereotaxic frame and ventilated by a rodent ventilator (Ugo Basile, Comerio-Varese, Italy). Core body temperature was maintained at 37.5° C. by a DC heating pad. The left and dorsal part of the parietal bone was removed by craniotomy and the dura was withdrawn exposing the pia mater and underlying brain, covered with 0.9% NaCl. AMPA (Sigma, USA) was dissolved at 10 mM in 0.2 M NaCl. NMDA (Sigma, USA) was dissolved at 100 mM in 100 mM NaCl. Both solutions were adjusted to pH 7.5-8.0 with NaOH. COMPOUND 61 was dissolved in 200 mM CH3SO3^- Na^+ at a contration of 10 mM for iontophoretic application ([…]) and in isotonic glucose (278 mM) for i.v. administration. Cyclothiazide, COMPOUND 63, COMPOUND 56, COMPOUND 115 and COMPOUND 114 were all dissolved at in 5% chremophore solution at a concentration of 5 mg ml^-1. Evoked neuronal spike activity was analyzed on-line by a computer, saving single spikes and time of event. Neuronal spike activity (number of action potentials s^-1) was monitored on a pulse rate histogram together with indicators for AMPA, COMPOUND 61 and vehicle application. Extracellular recordings of single hippocampal neuron spikes were made with five-barrel glass microelectrodes (5B120F-6, World Precision Instruments Inc., Sarasota, Fla., USA) with a tip diameter of 10-12 μm. The individual barrels were filled with 5 M NaCl (recording), 400 mM NaCl (current balancing), 10 mM COMPOUND 61 in 200 mM CH3SO3^- Na^+ (pH 4.7), 200 mM CH3SO3^- Na^+ (pH 4.7, Vehicle), and the last barrel was filled with the AMPA. Experiments were performed on hippocampal neurons (A=5.5-6.5 mm, L=1.5-2.0 mm, H=2.0-3.0 mm, according to Paxinos & Watson, 1986). Neuronal spike activity was evoked by iontophoretic application of AMPA for periods of 10 to 15 s with 1.5 min intervals. Single neuron spike activity was amplified 5000 times with a bandwidth of 0.3 and 3 kHz (CyberAmp 320 with a Al 402 x50 smartprobe, Axon Instruments, California, USA). On-line and off-line analyses were performed by the Spike2 program with a 1401 plus interface (Cambridge Electronic Design Limited, England). The computer program also recorded mean arterial blood pressure and monitored and controlled iontophoretic application. AMPA was ejected into hippocampus in regular cycles of 100-105 s. […] Recording of neuronal spike activity was continued for at least 45 min after intravenous injection. The PAM reactivity was tested by microiontophoretic application of COMPOUND 61 (20 nA, FIG.).

SMILES: Cc1cc2c(cc1S(=O)(=O)N1CCOCC1)S(=O)(=O)NC(C1CCCCC1)N2 (centres unmarked) [Compound 115, 3-Cyclohexyl-6-methyl-7-morpholinosulfonyl-1,2,3,4-tetrahydro-1,2,4-benzothiadiazine-1,1-dioxide]
- onset of the enhancement after i.v. administration (10 mg kg^−1 i.v.): 2 min
- AMPA evoked spike activity (10 mg kg^−1 i.v.): enhancement

SMILES: CN1CCN(S(=O)(=O)c2ccc3c(c2)S(=O)(=O)NC(C2CCCCC2)N3)CC1 (centres unmarked) [Compound 61, 3-Cyclohexyl-7-(4′-methylpiperazino)sulfonyl-1,2,3,4-tetrahydro-1,2,4-benzothiadiazine-1,1-dioxide]
- onset of the enhancement after i.v. administration (10 mg kg^−1 i.v.): 20 min
- AMPA evoked spike activity (10 mg kg^−1 i.v.): enhanced
- increase in AMPA evoked spike activity (10 mg kg^−1 i.v., FIG. 14): 3 fold
- AMPA evoked spike activity (iontophoretic application of the compound (20 nA)): enhanced

SMILES: O=S1(=O)NC(C2CCCCC2)Nc2ccc(S(=O)(=O)N3CCOCC3)cc21 (centres unmarked) [Compound 63, 3-Cyclohexyl-7-morpholinosulfonyl-1,2,3,4-tetrahydro-1,2,4-benzothiadiazine-1,1-dioxide]
- initial effect on the AMPA responses (10 mg kg^−1 i.v., before onset of enhancement): initial inhibition
- large AMPA responses, evoked by high intensity AMPA stimulation (10 mg kg^−1 i.v., high intensity AMPA (17 nA)): only marginal effect
- small AMPA responses, evoked by low intensity AMPA stimulation (10 mg kg^−1 i.v., low intensity AMPA (12 nA)): enhanced

SMILES: Cc1cc2c(cc1S(=O)(=O)N1CCCCC1)S(=O)(=O)NC(C1CCCC1)N2 (centres unmarked) [Compound 114, 3-Cyclopentyl-6-methyl-7-piperidinosulfonyl-1,2,3,4-tetrahydro-1,2,4-benzothia-diazine-1,1-dioxide]
- AMPA evoked spike activity (10 mg kg^−1 i.v.): enhanced
- increase of the AMPA responses (10 mg kg^−1 i.v., control level of the AMPA responses low, FIG. 15): 10 fold
- AMPA response after administration (10 mg kg^−1 i.v., larger control responses, from 124, FIG. 16): 204 spikes response^−1
- enhancement of the AMPA responses (10 mg kg^−1 i.v., larger control responses, FIG. 16): approximately doubled
- AMPA response after administration, mean response (10 mg kg^−1 i.v., low control level, from 21, FIG. 15): 209 spikes response^−1
